For experiment [1], the target named is PI3Kδ (p110δ/p85α) Recombinant Human Protein (Homo sapiens (Human), UniProt O00329). Briefly: PI3Kδ Scintillation Proximity Assay. It is filed as biochemical. As to conditions: read-out: PI3K-delta SPA IC50. An excerpt:
Example C. PI3Kδ Scintillation Proximity Assay
[γ-^33P]ATP (10 mCi/mL) and Wheat Germ Agglutinin (WGA) YSi SPA Scintillation Beads was purchased from Perkin-Elmer (Waltham, Mass.). Lipid kinase substrate, D-myo-Phosphatidylinositol 4,5-bisphosphate (PtdIns(4,5)P2)D (+)-sn-1,2-di-O-octanoylglyceryl, 3-O-phospho linked (PIP2), CAS 204858-53-7, was purchased from Echelon Biosciences (Salt Lake City, Utah). PI3Kδ (p110δ/p85α) Recombinant Human Protein was purchased from Eurofins (St Charles, Mo.). ATP, MgCl2, DTT, EDTA, MOPS and CHAPS were purchased from Sigma-Aldrich (St. Louis, Mo.).
(§1) The kinase reaction was conducted in polystyrene 384-well Greiner Bio-one white plate from Thermo Fisher Scientific in a final volume of 25 μL. Inhibitors were first diluted serially in DMSO and added to the plate wells before the addition of other reaction components. The final concentration of DMSO in the assay was 2%. The PI3Kδ assay was carried out at room temperature in 20 mM MOPS, pH 6.7, 10 mM MgCl2, 5 mM DTT and CHAPS 0.03%. Reactions were initiated by the addition of ATP, the final reaction mixture consisted of 20 μM PIP2, 2 μM ATP, 0.5 μCi [γ-^33P] ATP, 3.4 nM PI3Kδ. Reactions were incubated for 120 min and terminated by the addition of 40 μL SPA beads suspended in quench buffer: 163 mM potassium phosphate pH 7.8, 20% glycerol, 25 mM EDTA. The final concentration of SPA beads is 1.0 mg/mL. After the plate sealing, plates were shaken overnight at room temperature and centrifuged at 1500 rpm for 10 min, the radioactivity of the product was determined by scintillation counting on Topcount (Perkin-Elmer). IC50 determination was performed by fitting the curve of percent of the solvent control activity versus the log of the inhibitor concentration using the GraphPad Prism 6.0 software.
(In general: In a scintillation proximity assay essentially only radioactivity close to the scintillant gives light.)

Experiment [2] concerns the target PI3Kγ (p110γ) Recombinant Human Protein (Homo sapiens (Human), UniProt P48736). Briefly: PI3K-γ Scintillation Proximity Assay. It is filed as biochemical. As to conditions: read-out: PI3K-gamma SPA IC50.
Text: Example B. PI3K-γ Scintillation Proximity Assay
[γ-^33P]ATP (10 mCi/mL) and Wheat Germ Agglutinin (WGA) YSi SPA Scintillation Beads was purchased from Perkin-Elmer (Waltham, Mass.). Lipid kinase substrate, D-myo-Phosphatidylinositol 4,5-bisphosphate (PtdIns(4,5)P2)D (+)-sn-1,2-di-O-octanoylglyceryl, 3-O-phospho linked (PIP2), CAS 204858-53-7, was purchased from Echelon Biosciences (Salt Lake City, Utah). PI3Kγ (p110γ) Recombinant Human Protein was purchased from Life technology (Grand Island, N.Y.). ATP, MgCl2, DTT, EDTA, MOPS and CHAPS were purchased from Sigma-Aldrich (St. Louis, Mo.).
as §1, with “PI3Kγ” for “PI3Kδ”, “13” for “3.4”, “PI3Kγ.” for “PI3Kδ.”

Where a name gives a salt, the structure may show the parent alone. Some results are limits rather than exact numbers.

PI3Kγ (p110γ) Recombinant Human Protein, sequence (P48736 whole entry): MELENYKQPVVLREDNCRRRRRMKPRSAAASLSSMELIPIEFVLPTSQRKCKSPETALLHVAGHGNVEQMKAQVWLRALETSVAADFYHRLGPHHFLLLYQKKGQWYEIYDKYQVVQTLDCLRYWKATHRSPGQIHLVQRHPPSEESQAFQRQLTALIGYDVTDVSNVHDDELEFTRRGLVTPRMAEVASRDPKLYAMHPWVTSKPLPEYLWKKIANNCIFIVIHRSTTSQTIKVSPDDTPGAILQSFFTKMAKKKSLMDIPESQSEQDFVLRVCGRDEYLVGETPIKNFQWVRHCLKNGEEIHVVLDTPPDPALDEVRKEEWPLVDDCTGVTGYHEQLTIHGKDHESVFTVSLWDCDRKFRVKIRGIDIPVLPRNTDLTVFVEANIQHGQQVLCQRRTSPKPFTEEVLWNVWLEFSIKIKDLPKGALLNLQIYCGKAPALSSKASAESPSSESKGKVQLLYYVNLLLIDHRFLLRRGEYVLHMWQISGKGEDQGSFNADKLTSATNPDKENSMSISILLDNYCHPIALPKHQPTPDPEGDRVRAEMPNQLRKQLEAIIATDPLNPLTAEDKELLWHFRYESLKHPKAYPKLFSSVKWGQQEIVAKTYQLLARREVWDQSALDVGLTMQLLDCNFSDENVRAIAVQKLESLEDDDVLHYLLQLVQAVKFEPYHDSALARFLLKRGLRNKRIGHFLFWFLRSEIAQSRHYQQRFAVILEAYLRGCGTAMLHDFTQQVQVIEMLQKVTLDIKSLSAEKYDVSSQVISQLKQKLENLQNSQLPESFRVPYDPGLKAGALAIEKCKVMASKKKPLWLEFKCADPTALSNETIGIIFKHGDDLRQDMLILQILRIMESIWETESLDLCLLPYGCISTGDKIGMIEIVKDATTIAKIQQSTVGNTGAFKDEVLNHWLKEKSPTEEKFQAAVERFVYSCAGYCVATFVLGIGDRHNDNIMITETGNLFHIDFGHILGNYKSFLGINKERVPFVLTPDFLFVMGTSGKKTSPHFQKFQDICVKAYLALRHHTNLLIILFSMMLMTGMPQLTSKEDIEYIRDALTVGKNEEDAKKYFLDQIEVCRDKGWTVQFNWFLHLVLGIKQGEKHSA
PI3Kδ (p110δ/p85α) Recombinant Human Protein, sequence (O00329 whole entry): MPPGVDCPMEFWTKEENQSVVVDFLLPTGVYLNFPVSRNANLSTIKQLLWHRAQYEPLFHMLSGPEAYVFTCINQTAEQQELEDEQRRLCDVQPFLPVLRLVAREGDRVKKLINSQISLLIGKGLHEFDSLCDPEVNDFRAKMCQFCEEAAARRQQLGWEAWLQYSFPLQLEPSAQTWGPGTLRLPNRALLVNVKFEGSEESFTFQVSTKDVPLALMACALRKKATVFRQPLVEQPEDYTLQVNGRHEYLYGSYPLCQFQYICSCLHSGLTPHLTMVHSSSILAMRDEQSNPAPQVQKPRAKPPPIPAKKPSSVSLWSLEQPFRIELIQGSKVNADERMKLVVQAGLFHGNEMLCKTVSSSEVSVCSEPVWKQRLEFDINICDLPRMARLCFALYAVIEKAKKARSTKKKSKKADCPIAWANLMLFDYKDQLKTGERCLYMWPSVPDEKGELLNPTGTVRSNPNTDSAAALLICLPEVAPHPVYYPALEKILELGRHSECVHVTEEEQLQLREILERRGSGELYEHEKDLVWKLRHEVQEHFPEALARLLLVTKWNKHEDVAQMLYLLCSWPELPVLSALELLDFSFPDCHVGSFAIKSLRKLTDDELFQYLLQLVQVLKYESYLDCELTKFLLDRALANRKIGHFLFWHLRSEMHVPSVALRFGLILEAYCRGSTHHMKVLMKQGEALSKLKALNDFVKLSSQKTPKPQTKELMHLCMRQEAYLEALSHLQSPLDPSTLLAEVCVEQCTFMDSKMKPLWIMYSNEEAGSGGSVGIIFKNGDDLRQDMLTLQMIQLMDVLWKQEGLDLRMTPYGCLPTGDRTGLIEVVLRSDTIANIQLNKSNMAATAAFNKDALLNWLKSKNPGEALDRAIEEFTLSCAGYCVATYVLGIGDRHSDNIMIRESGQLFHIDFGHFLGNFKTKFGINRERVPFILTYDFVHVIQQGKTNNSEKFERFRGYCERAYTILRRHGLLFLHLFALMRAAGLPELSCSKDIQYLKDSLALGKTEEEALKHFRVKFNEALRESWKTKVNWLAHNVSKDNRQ
PI3Kδ (p110δ/p85α) Recombinant Human Protein, sequence (P27986 whole entry partner): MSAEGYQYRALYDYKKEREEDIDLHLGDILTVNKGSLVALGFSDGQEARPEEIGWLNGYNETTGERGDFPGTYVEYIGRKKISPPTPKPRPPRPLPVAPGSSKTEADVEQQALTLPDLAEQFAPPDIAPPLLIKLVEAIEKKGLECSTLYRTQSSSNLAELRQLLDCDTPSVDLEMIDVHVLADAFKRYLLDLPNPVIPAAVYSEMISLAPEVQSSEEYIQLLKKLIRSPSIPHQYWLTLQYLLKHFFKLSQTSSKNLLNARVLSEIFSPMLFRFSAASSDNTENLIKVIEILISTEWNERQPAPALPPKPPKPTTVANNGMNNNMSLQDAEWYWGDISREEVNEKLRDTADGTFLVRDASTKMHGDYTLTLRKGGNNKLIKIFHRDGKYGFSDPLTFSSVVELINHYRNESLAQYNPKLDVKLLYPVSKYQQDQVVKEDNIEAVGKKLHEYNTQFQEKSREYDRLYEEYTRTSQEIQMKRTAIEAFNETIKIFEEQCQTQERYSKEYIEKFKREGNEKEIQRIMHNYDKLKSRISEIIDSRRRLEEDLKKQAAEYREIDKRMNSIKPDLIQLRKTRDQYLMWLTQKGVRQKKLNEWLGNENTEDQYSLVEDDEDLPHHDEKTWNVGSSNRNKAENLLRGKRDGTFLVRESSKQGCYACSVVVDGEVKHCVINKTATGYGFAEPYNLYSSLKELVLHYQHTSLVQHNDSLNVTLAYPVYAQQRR

Consider `COC1CN(C(=O)c2nc(-c3cc(-c4cncc(N5CCOCC5)c4)ccn3)[nH]c2C)C1` [Example 263, 2′-{4-[(3-Methoxyazetidin-1-yl)carbonyl]-5-methyl-1H-imidazol-2-yl}-5-morpholin-4-yl-3,4′-bipyridine], for which the results for the IC50 in experiment [1] and in experiment [2] were not above 50 nM and not above 100 nM, respectively.

As for `Cc1nc(-c2cc(-c3cncc(C(=O)NCCC4CCOCC4)c3)ccn2)[nH]c1C` [Example 164, 2′-(4,5-Dimethyl-1H-imidazol-2-yl)-N-(2-(tetrahydro-2H-pyran-4-yl)ethyl)-3,4′-bipyridine-5-carboxamide trifluoroacetate salt], the figures for the IC50 in experiment [1] and in experiment [2] were not above 50 nM and not above 500 nM, respectively.

Consider `COc1cncc(-c2cc(-c3nc4ccccc4[nH]3)ncn2)c1` [Example 95, trifluoroacetate salt], for which the IC50 in experiment [1] and in experiment [2] was more than 500 nM each time.

As for `CCOC(=O)CCn1cc(-c2ccnc(-c3ncc(-c4ccccc4)[nH]3)c2)cn1` [Example 55, Ethyl 3-(4-(2-(5-phenyl-1H-imidazol-2-yl)pyridin-4-yl)-1H-pyrazol-1-yl)propanoate trifluoroacetate salt], the IC50 in experiment [1] and in experiment [2] was not above 500 nM each time.

With `COCCN(C)C(=O)c1cncc(-c2ccnc(-c3nc(C)c(C)[nH]3)c2)c1` [Example 204, 2′-(4,5-Dimethyl-1H-imidazol-2-yl)-N-(2-methoxyethyl)-N-methyl-3,4′-bipyridine-5-carboxamide trifluoroacetate salt], the values for the IC50 in experiment [1] and in experiment [2] were not above 50 nM and not above 100 nM, respectively.

Consider `COCCNCc1nc(-c2cc(-c3cncc(N4CCOCC4)c3)ccn2)[nH]c1C` [Example 290, 2-Methoxy-N-{[5-methyl-2-(5-morpholin-4-yl-3,4′-bipyridin-2′-yl)-1H-imidazol-4-yl]methyl}ethanamine], for which the IC50 in experiment [1] was not above 100 nM; in experiment [2], more than 500 nM.

Take `Cc1[nH]c(-c2cc(-c3cncc(N4CCOCC4)c3)ccn2)nc1CN[C@@H]1CCOC1` [Example 287, (3R)-N-{[5-Methyl-2-(5-morpholin-4-yl-3,4′-bipyridin-2′-yl)-1H-imidazol-4-yl]methyl}tetrahydrofuran-3-amine]: the IC50 in experiment [1] was not above 500 nM; in experiment [2] it was more than 500 nM.

For the compound `Cn1ccnc1-c1ccnc(-c2ncc(-c3ccccc3)[nH]2)c1` [Example 16, 4-(1-Methyl-1H-imidazol-2-yl)-2-(5-phenyl-1H-imidazol-2-yl)pyridine trifluoroacetate salt], the IC50 in experiment [1] and in experiment [2] was more than 500 nM each time.

Take `Cc1[nH]c(-c2cc(-c3cncc(N4CCOCC4)c3)ccn2)nc1C(=O)O` [Example 257, 5-Methyl-2-(5-morpholin-4-yl-3,4′-bipyridin-2′-yl)-1H-imidazole-4-carboxylic Acid Trifluoroacetate Salt]: the IC50 is more than 500 nM in experiment [1] and not above 500 nM in experiment [2].

Consider `Cc1nc(-c2cc(-c3cncc(C(=O)NCCCN(C)C)c3)ccn2)[nH]c1C` [Example 149, 2′-(4,5-Dimethyl-1H-imidazol-2-yl)-N-(3-(dimethylamino)propyl)-3,4′-bipyridine-5-carboxamide], for which the values for the IC50 in experiment [1] and in experiment [2] were more than 500 nM and not above 100 nM, respectively.

As to `COCCCNCc1nc(-c2cc(-c3cncc(N4CCOCC4)c3)ccn2)[nH]c1C` [Example 291, 3-Methoxy-N-{[5-methyl-2-(5-morpholin-4-yl-3,4′-bipyridin-2′-yl)-1H-imidazol-4-yl]methyl}propan-1-amine], the IC50 in experiment [1] is not above 50 nM; in experiment [2], more than 500 nM.

`Cc1[nH]c(-c2cc(-c3cncc(N4CCOCC4)c3)ccn2)nc1CN1CCOCC1` [Example 292, 2′-[5-Methyl-4-(morpholin-4-ylmethyl)-1H-imidazol-2-yl]-5-morpholin-4-yl-3,4′-bipyridine]: the IC50 is not above 100 nM in experiment [1] and not above 500 nM in experiment [2].

With `Cc1nc(-c2cc(-c3cncc(C(=O)N4CCC(c5ccccc5)C4)c3)ccn2)[nH]c1C` (racemic) [Example 181, 2′-(4,5-Dimethyl-1H-imidazol-2-yl)-5-[(3-phenylpyrrolidin-1-yl)carbonyl]-3,4′-bipyridine trifluoroacetate salt], the IC50 in experiment [1] was not above 50 nM; in experiment [2] it was not above 100 nM.

Take `Cn1cc(-c2ccnc(-c3ncc(-c4ccccc4)[nH]3)c2)cn1` [Example 8, 4-(1-Methyl-1H-pyrazol-4-yl)-2-(5-phenyl-1H-imidazol-2-yl)pyridine trifluoroacetate salt]: the IC50 in experiment [1] and in experiment [2] was not above 500 nM throughout.

In the case of `Clc1ccc(Cn2cc(-c3ccnc(-c4nc(C5CCNC5)c[nH]4)c3)cn2)cc1` (racemic) [Example 306, 4-[1-(4-Chlorobenzyl)-1H-pyrazol-4-yl]-2-(4-pyrrolidin-3-yl-1H-imidazol-2-yl)pyridine Trifluoroacetate Salt], the IC50 in experiment [1] and in experiment [2] was more than 500 nM in each case.

For `Cc1nc(-c2cc(C3=CCCN(Cc4ccccc4)C3)ccn2)[nH]c1C` [Example 223, 4-(1-Benzyl-1,2,5,6-tetrahydropyridin-3-yl)-2-(4,5-dimethyl-1H-imidazol-2-yl)pyridine trifluoroacetate salt], the IC50 in experiment [1] and in experiment [2] was more than 500 nM each time.

For the compound `Cc1nc(-c2cc(-c3cncc(C(=O)N4CCOCC4)c3)ccn2)[nH]c1C` [Example 148, (2′-(4,5-Dimethyl-1H-imidazol-2-yl)-3,4′-bipyridin-5-yl)(morpholino)methanone], the values for the IC50 in experiment [1] and in experiment [2] were not above 500 nM and not above 100 nM, respectively.

Turning to `Cc1nc(-c2cc(C3=CCCN(S(C)(=O)=O)C3)ccn2)[nH]c1C` [Example 220, 2-(4,5-Dimethyl-1H-imidazol-2-yl)-4-(1-(methylsulfonyl)-1,2,5,6-tetrahydropyridin-3-yl)pyridine trifluoroacetate salt], the IC50 is more than 500 nM in experiment [1] and not above 500 nM in experiment [2].

Consider `CC(C)c1cnc(-c2cc(-c3cncc(N4CCOCC4)c3)ccn2)[nH]1` [Example 101, 4-(2′-(5-Isopropyl-1H-imidazol-2-yl)-3,4′-bipyridin-5-yl)morpholine trifluoroacetate salt], for which the IC50 in experiment [1] and in experiment [2] was not above 500 nM throughout.

With `O=S(=O)(c1ccccc1)N1CCC(c2c[nH]c(-c3cc(-c4cnn(Cc5ccc(Cl)cc5)c4)ccn3)n2)C1` (centres unmarked) [Example 302, 4-[1-(4-Chlorobenzyl)-1H-pyrazol-4-yl]-2-{4-[1-(phenylsulfonyl)pyrrolichn-3-yl]-1H-imidazol-2-yl}pyridine trifluoroacetate salt], the IC50 in experiment [1] and in experiment [2] was not above 500 nM in each case.

For the compound `Cc1[nH]c(-c2cc(-c3cncc(S(C)(=O)=O)c3)ccn2)nc1C(=O)N1CC[C@H](O)C1` [Example 246, (3S)-1-({5-Methyl-2-[5-(methylsulfonyl)-3,4′-bipyridin-2′-yl]-1H-imidazol-4-yl}carbonyl)pyrrolidin-3-ol], the IC50 in experiment [1] and in experiment [2] was not above 500 nM each time.

For `Cc1nc(-c2cc(-c3cncc(C(=O)N4CCN(C(N)=O)CC4)c3)ccn2)[nH]c1C` [Example 150, 4-(2′-(4,5-Dimethyl-1H-imidazol-2-yl)-3,4′-bipyridine-5-carbonyl)piperazine-1-carboxamide], the values for the IC50 in experiment [1] and in experiment [2] were not above 100 nM and not above 500 nM, respectively.

Values taken from patent US11352340B2, “Pyridine and pyridimine compounds as PI3K-gamma inhibitors” (Incyte Corporation, priority 2016, dated 2022).
